Assay results taken from patent US20140350273A1, “PEDIATRIC USES OF CABAZITAXEL” (AVENTIS PHARMA S.A., priority 2012, published 2014).
Where two headings read alike, the source gives them in different places.

Tested on: human osteosarcoma DM77
Type: in vivo
Settings: for Tumor Volume Data (Day 21) Median / ΔT/ΔC %: day 21; for MTTE / T-C: volume endpoint 1400 mm^3
Description: In the reported examples supporting this invention, vials of the clinical formulation of cabazitaxel and docetaxel were used. […] The resultant solution contains 10 mg/mL of cabazitaxel. Stock solution of cabazitaxel was then diluted in 0.9% sodium chloride.
This efficacy may be quantified, for example, as changes in tumor volume for each treated (T) and control (C) group, which are calculated for each animal and each day by subtracting the tumor volume on the day of first treatment (staging day) from the tumor volume on the specified observation day. This allows calculating the tumor growth inhibition: ΔT/ΔC=(median delta T/median delta C)×100. Individual tumor volume changes from baseline are thereafter analyzed by a non-parametric two-way ANOVA-TYPE (with factors: group and repeated days) followed by a post-hoc contrasts analysis, with Bonferroni-Holm adjustment for multiplicity, comparing all treated groups to the control group. […] A probability less than 5% (p<0.05) was considered as significant.
Based on the National Cancer Institute (NCl) standards, a ΔT/ΔC≦40% is the minimal level required to declare activity.
This efficacy may also be quantified by the number of tumor regressions observed after therapy. Individual mice reporting a tumor volume ≦50% of the Day 0 measurement for two consecutive measurements over a seven day period were considered partial responders (PR). Individual mice lacking palpable tumors (<4×4 mm^2 for two consecutive measurements over a seven day period) were classified as complete responders (CR); a CR that persisted until study completion was considered a tumor-free survivor (TFS).
Efficacy could also be determined at study completion, using tumor growth delay (T-C) in days, which is calculated using the median time to endpoint (MTTE) value for each treatment (T) group versus control (C). A Log Rank multiple comparison test with Bonferroni-Holm adjustment for multiplicity was applied on individual TTE to compare the treated groups to the control group.
The efficacy of cabazitaxel in comparison with docetaxel on pediatric patient-derived tumor xenografts was determined experimentally in the following manner:
The animals subjected to the experiment are subcutaneously grafted unilaterally with approximately 30 mg of a tumor fragment from low passage pediatric patient-derived tumor xenografts. The animals are implanted with a human patient-derived pediatric tumor xenografted in immuno-compromised mice (Harlan; nu/nu). Several days post tumor implantation, mice are randomized according to their tumor burden to the different groups of treatments and controls. The agents are dosed intravenously at 5.8, 9.3, 15 or 24.2 mg/kg every 4 days for a total of 3 doses (q4d×3) to mice bearing a tumor burden at start of therapy (day 0) ranged from 125 to 250 mm^3.
Beginning Day 0, animals were observed daily and weighed twice weekly using a digital scale; data including individual and mean gram weights (Mean We±SD), mean percent weight change versus Day 0 were recorded for each group. Animal deaths were recorded daily and designated as drug-related (D), technical (T), tumor related (B), or unknown (U) based on weight loss and gross observation; single agent or combination groups reporting a mean >20% for a period of 7 days and/or >10% mortality were considered above the maximum tolerated dose (MTD) for that treatment on the evaluated regimen.
The selected tumor model, DM77, was a low passage patient-derived tumor xenograft derived from an osteosarcoma taken from the lung of a patient. […]

## CC(=O)O[C@@]12CO[C@@H]1C[C@H](O)[C@@]1(C)C(=O)[C@H](O)C3=C(C)[C@@H](OC(=O)[C@H](O)[C@@H](NC(=O)OC(C)(C)C)c4ccccc4)C[C@@](O)([C@@H](OC(=O)c4ccccc4)[C@H]21)C3(C)C [Docetaxel, docetaxel]
9.3 mg/kg, DAY 53
  tumor volume changes from baseline, Median +/− nMAD: 542 +/− 447.5
9.3 mg/kg, DAY 56
  tumor volume changes from baseline, Median +/− nMAD: 493 +/− 238
15 mg/kg i.v./q4dx3
  #CR: 0
  #PR: 3
  #TFS: 0
  Drug Deaths Total: 0
  Weight Change at Nadir %: −14%
  Weight Change at Nadir Day: 11 days
  Tumor Volume Data (Day 21) Median: 78 mm^3
  ΔT/ΔC %: −5.9%
  MTTE: >60 days
  T-C: >35 days
15 mg/kg, DAY 4
  tumor volume changes from baseline, Median +/− nMAD: 66 +/− 66
15 mg/kg, DAY 7
  tumor volume changes from baseline, Median +/− nMAD: 73 +/− 73
15 mg/kg, DAY 11
  tumor volume changes from baseline, Median +/− nMAD: −41 +/− 41
15 mg/kg, DAY 14
  tumor volume changes from baseline, Median +/− nMAD: −41 +/− 41
15 mg/kg, DAY 18
  tumor volume changes from baseline, Median +/− nMAD: −53 +/− 17
15 mg/kg, DAY 21
  tumor volume changes from baseline, Median +/− nMAD: −54 +/− 12
15 mg/kg, DAY 25
  tumor volume changes from baseline, Median +/− nMAD: −66 +/− 17
15 mg/kg, DAY 28
  tumor volume changes from baseline, Median +/− nMAD: −66 +/− 17
15 mg/kg, DAY 32
  tumor volume changes from baseline, Median +/− nMAD: −66 +/− 17
15 mg/kg, DAY 35
  tumor volume changes from baseline, Median +/− nMAD: −66 +/− 13
15 mg/kg, DAY 39
  tumor volume changes from baseline, Median +/− nMAD: −66 +/− 13
15 mg/kg, DAY 42
  tumor volume changes from baseline, Median +/− nMAD: −66 +/− 13
15 mg/kg, DAY 46
  tumor volume changes from baseline, Median +/− nMAD: −58 +/− 11
15 mg/kg, DAY 49
  tumor volume changes from baseline, Median +/− nMAD: −58 +/− 11
15 mg/kg, DAY 53
  tumor volume changes from baseline, Median +/− nMAD: −58 +/− 11
15 mg/kg, DAY 56
  tumor volume changes from baseline, Median +/− nMAD: −58 +/− 11
24.2 mg/kg i.v./q4dx3
  #CR: 1
  #PR: 6
  #TFS: 1
  Drug Deaths Total: 0
  Weight Change at Nadir %: −17%
  Weight Change at Nadir Day: 14 days
  Tumor Volume Data (Day 21) Median: 71.5 mm^3
  ΔT/ΔC %: −6.1%
  MTTE: >60 days
  T-C: >35 days
24.2 mg/kg, DAY 4
  tumor volume changes from baseline, Median +/− nMAD: 0 +/− 0
24.2 mg/kg, DAY 7
  tumor volume changes from baseline, Median +/− nMAD: 0 +/− 0
24.2 mg/kg, DAY 11
  tumor volume changes from baseline, Median +/− nMAD: −50 +/− 24
24.2 mg/kg, DAY 14
  tumor volume changes from baseline, Median +/− nMAD: −55.5 +/− 20
24.2 mg/kg, DAY 18
  tumor volume changes from baseline, Median +/− nMAD: −55.5 +/− 20
24.2 mg/kg, DAY 21
  tumor volume changes from baseline, Median +/− nMAD: −55.5 +/− 10.5
24.2 mg/kg, DAY 25
  tumor volume changes from baseline, Median +/− nMAD: −55.5 +/− 10.5
24.2 mg/kg, DAY 28
  tumor volume changes from baseline, Median +/− nMAD: −53.5 +/− 13
24.2 mg/kg, DAY 32
  tumor volume changes from baseline, Median +/− nMAD: −53.5 +/− 33
24.2 mg/kg, DAY 35
  tumor volume changes from baseline, Median +/− nMAD: −57.5 +/− 45.5
24.2 mg/kg, DAY 39
  tumor volume changes from baseline, Median +/− nMAD: −57.5
24.2 mg/kg, DAY 42
  tumor volume changes from baseline, Median +/− nMAD: −57.5
24.2 mg/kg, DAY 46
  tumor volume changes from baseline, Median +/− nMAD: −57.5
24.2 mg/kg, DAY 49
  tumor volume changes from baseline, Median +/− nMAD: −48 +/− 45.5
24.2 mg/kg, DAY 53
  tumor volume changes from baseline, Median +/− nMAD: −48 +/− 69.5
24.2 mg/kg, DAY 56
  tumor volume changes from baseline, Median +/− nMAD: −48 +/− 69.5
